These compounds were tested on midbrain dopaminergic neurons (assay: Dopamine (DA) uptake assay in primary midbrain cultures). Settings: 20 μM.
Type: cell-based, rat
Protocol: Primary midbrain cultures were prepared from rat embryo ventral mesencephalon as described previously by Lin et al (1994). In brief, rostral mesencephalic tegmentum of embryonic day 16 rat embryos was collected in DMEM/F12 (Hyclone SH30023.01) containing 2 mM glutamine on ice, The tissue was treated with 0.1% trypsin in Hanks' balanced salt solution (HBSS, Gibco 14175-095) for 15 min at 37° C. and dissociated mechanically by mild trituration with a fire-polished glass pipet in growth medium plus 2% heat-inactivated fetal bovine serum (FBS). The growth medium consisted of equal volumes of Dulbecco's minimal essential medium DMEM (Gibco 12100-046) and HAM's F12 nutrient mixture (Gibco 21700-075) supplemented with 33 mM glucose, 13 mM sodium bicarbonate, 5 mM HEPES, 2 mM glutamine, 25 μg/ml insulin, 100 μg/ml transferrin, 60 μM putrescine, 20 nM progesterone, 30 nM sodium selenite, 5 U/ml penicillin G and 5 μg/ml streptomycin. 24-well tissue culture plate was coated by adding 15 μg/ml poly-1-ornithine hydrobromide solution at 0.5 ml/well, incubated at room temperature for 1 hr. The coating solution was removed and the well washed 3 times with distilled water and one wash with HBSS. The dissociated cells were plated onto polyornithine-coated wells at 250,000-350,000 trypan blue-excluding viable cells per well in 500 μl of above medium containing 1% FBS. After 3 h when most of the cells had adhered to the bottom of the well, the medium was replaced with 500 μl of fresh medium without FBS. A serial dilution of the sample to be assayed for trophic activity was added to each well in duplicate at the time of medium change or within 24 h thereafter. Unless otherwise stated, cultures were incubated at 37° C. without any further medium change up to 7 days. Primary hindbrain cultures were prepared as described for the midbrain cultures except that the rostral raphe region (instead of the rostral mesencephalon) was dissected and trypsinized for 20 (instead of 15) min.
[^3H]DA uptake was measured in cultures at day 7, and all the solutions were maintained at 37° C. The growth medium was removed, and the cultures were rinsed twice with 0.25 ml of uptake buffer, which consists of HBSS (Gibco 11201-092) supplemented with 28 mM glucose, 15 mM HEPES, 1 mM ascorbic acid (an antioxidant), and […] pargyline (a monoamine oxidase inhibitor). The cultures were then incubated with 0.25 ml of fresh uptake buffer containing 50 nM [^3H]DA (NEN/DuPont) for 20 min at 37° C. [^3H]DA uptake was stopped by removing the incubation mixture, and cells were then washed twice with 0.5 ml of the uptake buffer at room temperature. To release [^3H]DA from the cells, the cultures were lysed with 0.2 ml of 0.1 N NaOH for 1 h at room temperature, the lysate was then added to 1 ml of Microscint-20 (Packard 6013621), and counted for radioactivity in a microplate scintillation counter (Packard TopCount, NXT). Background values were obtained by adding to the uptake buffer 0.5 mM GBR-12909, a specific inhibitor of the high-affinity uptake pump of the dopaminergic neurons, and were usually <5% of the ^3H uptake in untreated control cultures. Forskolin (Fk, 25 μM) was employed as a positive control.

Structure (SMILES) | cytotoxicity in midbrain culture
O=C(/C=C/c1ccc(Br)cc1)Nc1ccc(S(=O)(=O)Nc2nc[nH]n2)cc1 [X′] | no cytotoxicity
O=C(Nc1ccc(S(=O)(=O)Nc2nc[nH]n2)cc1)c1ccc2ccccc2c1 [Y′] | no cytotoxicity

Same assay, conditions: Rattus norvegicus, Neuron, compound concentration 0.3 μM; midbrain culture; read-out: DA uptake % of control

Structure (SMILES) | activity at 0.3 µM [%]
O=C(/C=C/c1ccc(Cl)cc1Cl)Nc1ccc(S(=O)(=O)Nc2nccs2)cc1 [V″] | 250

Same assay, conditions: Rattus norvegicus, Neuron, compound concentration 0.6 μM; midbrain culture; read-out: DA uptake % of control

Structure (SMILES) | activity at 0.6 µM [%]
O=C(/C=C/c1ccccc1Cl)Nc1ccc(S(=O)(=O)N2CCCCC2)cc1 [M′] | 145
O=C(Nc1ccc(S(=O)(=O)Nc2nccs2)cc1)c1sc2cc(Cl)ccc2c1Cl [T′] | 140
CC(C)(C)c1cc(Br)ccc1OCC(=O)Nc1ccc(S(=O)(=O)Nc2nccs2)cc1 [U′] | 140
O=C(/C=C/c1ccc(Br)cc1)Nc1ccc(S(=O)(=O)Nc2nc[nH]n2)cc1 [X′] | 290

Same assay, conditions: Rattus norvegicus, Neuron, compound concentration 0.7 μM; midbrain culture; read-out: DA uptake % of control

Structure (SMILES) | activity at 0.7 µM [%]
O=C(/C=C/c1cccc(Cl)c1)Nc1ccc(S(=O)(=O)Nc2nccs2)cc1 [M] | 120

Same assay, conditions: Rattus norvegicus, Neuron, compound concentration 1.25 μM; midbrain culture; read-out: DA uptake % of control

Structure (SMILES) | activity at 1.25 µM [%]
O=C(/C=C/c1cc(F)ccc1C(F)(F)F)Nc1ccc(S(=O)(=O)Nc2nccs2)cc1 [L″] | 375
O=C(/C=C/c1ccccc1C(F)(F)F)Nc1ccc(S(=O)(=O)Nc2nccs2)cc1 [M″] | 280
CCCOc1ccc(/C=C/C(=O)Nc2ccc(S(=O)(=O)Nc3nccs3)cc2)cc1OC [P′] | 210
COc1cccc(/C=C/C(=O)Nc2ccc(S(=O)(=O)Nc3nnc[nH]3)cc2)c1 [R′′′] | 150
O=C(CCN1C(=O)S/C(=C\c2ccc(Cl)cc2)C1=O)Nc1ccc(S(=O)(=O)Nc2nccs2)cc1 [S′] | 150
O=C(/C=C/c1c(Cl)cccc1Cl)Nc1ccc(S(=O)(=O)Nc2nccs2)cc1 [U′′′′] | 290
O=C(/C=C/c1cccc(OC(F)(F)F)c1)Nc1ccc(S(=O)(=O)Nc2nccs2)cc1 [V′′′′] | 200
O=C(/C=C/c1ccc(F)cc1Cl)Nc1ccc(S(=O)(=O)Nc2nccs2)cc1 [W′′′′] | 190
O=C(/C=C/c1cc2c(cc1Br)OCO2)Nc1ccc(S(=O)(=O)Nc2nccs2)cc1 [W″] | 330
Cc1ccccc1/C=C/C(=O)Nc1ccc(S(=O)(=O)Nc2nc[nH]n2)cc1 [X′′′′] | 260
O=C(/C=C/c1cc(C(F)(F)F)ccc1C(F)(F)F)Nc1ccc(S(=O)(=O)Nc2nccs2)cc1 [X″] | 245
O=C(Nc1ccc(S(=O)(=O)Nc2nc[nH]n2)cc1)c1ccc2ccccc2c1 [Y′] | 290

Same assay, conditions: Rattus norvegicus, Neuron, compound concentration 1.4 μM; midbrain culture; read-out: DA uptake % of control

Structure (SMILES) | activity at 1.4 µM [%]
Cc1ccnc(NS(=O)(=O)c2ccc(NC(=O)/C=C/c3cccc(Cl)c3)cc2)n1 [S] | 220

Same assay, conditions: Rattus norvegicus, Neuron, compound concentration 2.5 μM; midbrain culture; read-out: DA uptake % of control

Structure (SMILES) | activity at 2.5 µM [%]
O=C(/C=C/c1cccc(Br)c1)Nc1ccc(S(=O)(=O)Nc2nccs2)cc1 [M′′′′] | 190
O=C(/C=C/c1ccc(Oc2ccccc2)cc1)Nc1ccc(S(=O)(=O)Nc2nccs2)cc1 [N] | 170
Cc1ccc(/C=C/C(=O)Nc2ccc(S(=O)(=O)Nc3onc(C)c3C)cc2)cc1 [N′] | 155
O=C(Nc1ccc(S(=O)(=O)Nc2nccs2)cc1)c1cc2ccccc2s1 [N′′′′] | 170
Cc1ccc(/C=C/C(=O)Nc2ccc(S(=O)(=O)Nc3nc(C)cc(C)n3)cc2)cc1 [O′] | 150
O=C(/C=C/c1ccc(Br)cc1)Nc1ccc(S(=O)(=O)Nc2nccs2)cc1 [O″] | 290
O=C(/C=C/c1ccccc1[N+](=O)[O-])Nc1ccc(S(=O)(=O)Nc2nccs2)cc1 [P′′′′] | 150
COc1ccc(/C=C/C(=O)Nc2ccc(S(=O)(=O)Nc3cc(C)nc(C)n3)cc2)cc1Br [Q] | 140
O=C(/C=C/c1ccc(F)cc1C(F)(F)F)Nc1ccc(S(=O)(=O)Nc2nc[nH]n2)cc1 [Q″] | 270
COc1ccc(/C=C2\SC(=O)N(CCC(=O)Nc3ccc(S(=O)(=O)Nc4nccs4)cc3)C2=O)cc1 [R′] | 155
CCOc1ccccc1/C=C/C(=O)Nc1ccc(S(=O)(=O)Nc2nccs2)cc1 [R′′′′] | 170
O=C(/C=C/c1cccc(F)c1)Nc1ccc(S(=O)(=O)Nc2nc[nH]n2)cc1 [S″] | 280
Cc1ccccc1/C=C/C(=O)Nc1ccc(S(=O)(=O)Nc2nccs2)cc1 [T″] | 230
O=C(/C=C/c1ccccc1Br)Nc1ccc(S(=O)(=O)Nc2ccccn2)cc1 [U″] | 210
O=C(/C=C/c1cccc(O)c1)Nc1ccc(S(=O)(=O)Nc2nncs2)cc1 [V′′′] | 160
COc1ccccc1/C=C/C(=O)Nc1ccc(S(=O)(=O)NC(=N)/C=C(\C)O)cc1 [W′′′] | 140

Same assay, conditions: Rattus norvegicus, Neuron, compound concentration 5 μM; midbrain culture; read-out: DA uptake % of control

Structure (SMILES) | activity at 5 µM [%]
O=C(/C=C/c1cccc(O)c1)Nc1ccc(S(=O)(=O)Nc2ccccn2)cc1 [M′′′] | 170
O=C(Nc1ccc(S(=O)(=O)Nc2nccs2)cc1)c1ccc(Br)cc1 [P] | 160
COc1ccccc1/C=C/C(=O)Nc1ccc(S(=O)(=O)Nc2ccccn2)cc1 [P″] | 200
O=C(CCN1C(=O)S/C(=C\c2ccccc2)C1=O)Nc1ccc(S(=O)(=O)Nc2nccs2)cc1 [Q′] | 180
O=C(/C=C/c1ccccc1)Nc1ccc(S(=O)(=O)Nc2nnc[nH]2)cc1 [Q′′′] | 170
CCc1ccccc1/C=C\C(=O)Nc1ccc(S(=O)(=O)Nc2nc[nH]n2)cc1 [R″] | 290
CCOc1cccc(/C=C/C(=O)Nc2ccc(S(=O)(=O)Nc3nccs3)cc2)c1 [S′′′′] | 170
O=C(/C=C/c1ccc([N+](=O)[O-])cc1)Nc1ccc(S(=O)(=O)Nc2nccs2)cc1 [T′′′′] | 180
CCc1nnc(NS(=O)(=O)c2ccc(NC(=O)/C=C/c3ccc(F)cc3)cc2)s1 [W] | 180
C/C(O)=C\C(=N)NS(=O)(=O)c1ccc(NC(=O)/C=C/c2ccccc2)cc1 [X′′′] | 140

Same assay, conditions: Rattus norvegicus, Neuron, compound concentration 10 μM; midbrain culture; read-out: DA uptake % of control

Structure (SMILES) | activity at 10 µM [%]
COc1cccc(/C=C/C(=O)Nc2ccc(S(=O)(=O)Nc3ccccn3)cc2)c1 [N′′′] | 180
O=C(/C=C/c1ccccc1O)Nc1ccc(S(=O)(=O)Nc2ccccn2)cc1 [O′′′] | 150
O=C(Nc1ccc(S(=O)(=O)Nc2nccs2)cc1)/C(F)=C/c1ccccc1 [O′′′′] | 200
O=C(/C=C/c1ccccc1O)Nc1ccc(S(=O)(=O)Nc2nccs2)cc1 [P′′′] | 150
COc1ccc(/C=C/C(=O)Nc2ccc(S(=O)(=O)Nc3nnc[nH]3)cc2)cc1 [S′′′] | 190
Cc1cccc(C(=O)Nc2ccc(S(=O)(=O)Nc3nccs3)cc2)c1 [T] | 140
CCc1nnc(NS(=O)(=O)c2ccc(NC(=O)/C=C/c3ccc(OC)cc3OC)cc2)s1 [U] | 150
O=C(/C=C/c1ccccc1Cl)Nc1ccc(S(=O)(=O)Nc2nncs2)cc1 [U′′′] | 180
O=C(Nc1ccc(S(=O)(=O)Nc2nccs2)cc1)c1cccc(C(F)(F)F)c1 [V] | 220
CCCCCCCC(=O)Nc1ccc(S(=O)(=O)Nc2nccs2)cc1 [W′] | 200

Same assay, conditions: Rattus norvegicus, Neuron, compound concentration 20 μM; midbrain culture; read-out: DA uptake % of control

Structure (SMILES) | activity at 20 µM [%]
O=C(/C=C/c1ccoc1)Nc1ccc(S(=O)(=O)Nc2nccs2)cc1 [N″] | 240
O=C(/C=C/c1ccc(F)cc1)Nc1ccc(S(=O)(=O)Nc2nccs2)cc1 [O] | 240
Cc1ccc(C(=O)Nc2ccc(S(=O)(=O)Nc3nccs3)cc2)cc1 [R] | 140
CCc1nnc(NS(=O)(=O)c2ccc(NC(=O)c3ccc(Cl)cc3)cc2)s1 [X] | 140

Same assay, conditions: Rattus norvegicus, Neuron, compound concentration 40 μM; midbrain culture; read-out: DA uptake % of control

Structure (SMILES) | activity at 40 µM [%]
O=C(/C=C/c1ccccc1)Nc1ccc(S(=O)(=O)Nc2nncs2)cc1 [T′′′] | 150
O=C(Nc1ccc(S(=O)(=O)Nc2nccs2)cc1)c1cncc(Br)c1 [V′] | 130
COc1ccc(/C=C/C(=O)Nc2ccc(S(=O)(=O)Nc3cc(C)nc(C)n3)cc2)cc1OC [Y] | 160

Same assay, conditions: Rattus norvegicus, Neuron; midbrain culture, FIG. 36; read-out: half-maximal effective concentration (EC50) for DA uptake stimulation

Structure (SMILES) | EC50 [nM]
O=C(/C=C/c1ccc(Br)cc1)Nc1ccc(S(=O)(=O)Nc2nc[nH]n2)cc1 [X′] | ~200
O=C(Nc1ccc(S(=O)(=O)Nc2nc[nH]n2)cc1)c1ccc2ccccc2c1 [Y′] | ~200
